≈ marks a conversion by molar mass, not a printed value. Positions of bridges follow the written chain, without caps; N, C: chain ends. Non-standard residues stand in square brackets, D forms with d. Residues, ends and D or L forms follow the SMILES beside them. *: point of attachment. Phe(3,4,5-F3) = N[C@@H](Cc1cc(F)c(F)c(F)c1)C(=O)O; Phe(4-Br) = N[C@@H](Cc1ccc(Br)cc1)C(=O)O; Phe(4-Cl) = N[C@@H](Cc1ccc(Cl)cc1)C(=O)O; dPhe(4-Cl) = N[C@H](Cc1ccc(Cl)cc1)C(=O)O; d(hhPhe) = N[C@H](CCCc1ccccc1)C(=O)O; dPhe(2-F) = N[C@H](Cc1ccccc1F)C(=O)O; Gly(octyl) = CCCCCCCC[C@H](N)C(=O)O; d(hPhe) = N[C@H](CCc1ccccc1)C(=O)O; hPhe = N[C@@H](CCc1ccccc1)C(=O)O; hLeu = CC(C)CC[C@H](N)C(=O)O; Octanoyl = CCCCCCCC(=O)*; Dab = NCC[C@H](N)C(=O)O
How the values were obtained:
[1] = test system: Pseudomonas aeruginosa; assay: Antimicrobial activity against Pseudomonas aeruginosa PAO1 assessed as bacterial growth inhibition incubated for 20 hrs by broth microdilution method; assay type: functional
[2] = test system: Acinetobacter baumannii; assay: Antimicrobial activity against colistin resistant Acinetobacter baumannii ATCC 3658/17 assessed as bacterial growth inhibition incubated for 20 hrs by broth microdilution method; assay type: functional
[3] = test system: Acinetobacter baumannii; assay: Antimicrobial activity against Acinetobacter baumannii ATCC 19606 assessed as bacterial growth inhibition incubated for 20 hrs by broth microdilution method; assay type: functional
[4] = test system: Escherichia coli; assay: Antibacterial activity against Escherichia coli ATCC 25922 assessed as bacterial growth inhibition incubated for 20 hrs by broth microdilution method; assay type: functional
[5] = Hemolytic activity in human RBC at 400 ug/ml after 1 hr; assay type: toxicity, cell-based, Erythrocyte; conditions: red blood cells (erythrocytes), at 400 µg/mL, read-out: Activity

**Q.** For `CCCCCCCC(=O)N[C@@H](CCN)C(=O)N[C@H](C(=O)N[C@@H](CCN)C(=O)N[C@H]1CCNC(=O)[C@H]([C@@H](C)O)NC(=O)[C@H](CCN)NC(=O)[C@H](CCN)NC(=O)[C@H](Cc2ccc(Br)cc2)NC(=O)[C@@H](CC(C)C)NC(=O)[C@H](CCN)NC1=O)[C@@H](C)O` (Octanoyl-[Dab]T[Dab][Dab][Dab][dL][Phe(4-Br)][Dab][Dab]T; lactam 4-C) [listing 1 of 2 here], which MIC [1] is on record?
**A.** 0.25 µg/mL (≈ 0.197 µM)

**Q.** What about the MIC [2] of the same compound?
**A.** 1 µg/mL (≈ 0.788 µM)

**Q.** What about the MIC [3] of the same compound?
**A.** 0.25 µg/mL (≈ 0.197 µM)

**Q.** Which MIC [1] does the source give for `CCCCCCCC(=O)N[C@@H](CCN)C(=O)N[C@H](C(=O)N[C@@H](CCN)C(=O)N[C@H]1CCNC(=O)[C@H]([C@@H](C)O)NC(=O)[C@H](CCN)NC(=O)[C@H](CCN)NC(=O)[C@H](Cc2cc(F)c(F)c(F)c2)NC(=O)[C@@H](CC(C)C)NC(=O)[C@H](CCN)NC1=O)[C@@H](C)O` (Octanoyl-[Dab]T[Dab][Dab][Dab][dL][Phe(3,4,5-F3)][Dab][Dab]T; lactam 4-C) here?
**A.** 0.25 µg/mL (≈ 0.201 µM)

**Q.** What about the MIC [2] of the same compound?
**A.** 2 µg/mL (≈ 1.61 µM)

**Q.** And the MIC [3]?
**A.** < 0.125 µg/mL

**Q.** Which results are given for `CCCCCCCC(=O)N[C@@H](CCN)C(=O)N[C@H](C(=O)N[C@@H](CCN)C(=O)N[C@H]1CCNC(=O)[C@H]([C@@H](C)O)NC(=O)[C@H](CCN)NC(=O)[C@H](CCN)NC(=O)[C@H](Cc2ccc(Cl)cc2)NC(=O)[C@@H](CC(C)C)NC(=O)[C@H](CCN)NC1=O)[C@@H](C)O` (Octanoyl-[Dab]T[Dab][Dab][Dab][dL][Phe(4-Cl)][Dab][Dab]T; lactam 4-C) [listing 1 of 2 here]?
**A.** MIC [1]: 0.25 µg/mL (≈ 0.204 µM); MIC [2]: 1 µg/mL (≈ 0.817 µM); MIC [3]: 0.125 µg/mL (≈ 0.102 µM)

**Q.** Which results are given for `CCCCCCCC(=O)N[C@@H](CCN)C(=O)N[C@H](C(=O)N[C@@H](CCN)C(=O)N[C@H]1CCNC(=O)[C@H]([C@@H](C)O)NC(=O)[C@H](CCN)NC(=O)[C@H](CCN)NC(=O)[C@H](CC(C)C)NC(=O)[C@@H](Cc2ccccc2F)NC(=O)[C@H](CCN)NC1=O)[C@@H](C)O` (Octanoyl-[Dab]T[Dab][Dab][Dab][dPhe(2-F)]L[Dab][Dab]T; lactam 4-C)?
**A.** MIC [4]: 0.123 µg/mL (≈ 0.102 µM); MIC [2]: 0.5 µg/mL (≈ 0.414 µM); MIC [3]: 0.06 µg/mL (≈ 0.0497 µM)

**Q.** With `CC(=O)N[C@H](Cc1ccc(F)cc1)C(=O)N[C@@H](CCN)C(=O)N[C@H](C(=O)N[C@@H](CCN)C(=O)N[C@H]1CCNC(=O)[C@H]([C@@H](C)O)NC(=O)[C@H](CCN)NC(=O)[C@H](CCN)NC(=O)[C@H](CC(C)C)NC(=O)[C@@H](Cc2ccccc2)NC(=O)[C@@H](CCN)NC1=O)[C@H](C)O` as the compound, how does the MIC [4] read?
**A.** 0.25 µg/mL (≈ 0.197 µM)

**Q.** And the MIC [2]?
**A.** 16 µg/mL (≈ 12.6 µM)

**Q.** What about the hemolysis at 1 h, 400 ug/ml [5] of the same compound?
**A.** < 10%

**Q.** And the MIC [3]?
**A.** 2 µg/mL (≈ 1.57 µM)

**Q.** Which hemolysis at 1 h, 400 ug/ml [5] does the source give for `CCCCCCCC(=O)N[C@@H](CCN)C(=O)N[C@H](C(=O)N[C@@H](CCN)C(=O)N[C@H]1CCNC(=O)[C@H]([C@@H](C)O)NC(=O)[C@H](CCN)NC(=O)[C@H](CCN)NC(=O)[C@H](CCC(C)C)NC(=O)[C@@H](Cc2ccccc2)NC(=O)[C@H](CCN)NC1=O)[C@@H](C)O` (Octanoyl-[Dab]T[Dab][Dab][Dab][dF][hLeu][Dab][Dab]T; lactam 4-C) here?
**A.** < 10%

**Q.** Which hemolysis at 1 h, 400 ug/ml [5] does the source give for `CCCCCCCC(=O)N[C@@H](CCN)C(=O)N[C@H](C(=O)N[C@@H](CCN)C(=O)N[C@H]1CCNC(=O)[C@H]([C@@H](C)O)NC(=O)[C@H](CCN)NC(=O)[C@H](CCN)NC(=O)[C@H](Cc2ccccc2)NC(=O)[C@@H](CCCc2ccccc2)NC(=O)[C@H](CCN)NC1=O)[C@@H](C)O` (Octanoyl-[Dab]T[Dab][Dab][Dab][d(hhPhe)]F[Dab][Dab]T; lactam 4-C) here?
**A.** < 10%

**Q.** With `CCCCCCCC(=O)N[C@@H](CCN)C(=O)N[C@H](C(=O)N[C@@H](CCN)C(=O)N[C@H]1CCNC(=O)[C@H]([C@@H](C)O)NC(=O)[C@H](CCN)NC(=O)[C@H](CCN)NC(=O)[C@H](CCCc2ccccc2)NC(=O)[C@@H](Cc2ccccc2)NC(=O)[C@H](CCN)NC1=O)[C@@H](C)O` as the compound, how does the hemolysis at 1 h, 400 ug/ml [5] read?
**A.** < 10%

**Q.** For `CCCCCCCC(=O)N[C@@H](CCN)C(=O)N[C@H](C(=O)N[C@@H](CCN)C(=O)N[C@H]1CCNC(=O)[C@H]([C@@H](C)O)NC(=O)[C@H](CCN)NC(=O)[C@H](CCN)NC(=O)[C@H](Cc2ccccc2)NC(=O)[C@@H](CCc2ccccc2)NC(=O)[C@H](CCN)NC1=O)[C@@H](C)O` (Octanoyl-[Dab]T[Dab][Dab][Dab][d(hPhe)]F[Dab][Dab]T; lactam 4-C), which hemolysis at 1 h, 400 ug/ml [5] is on record?
**A.** < 10%

**Q.** With `CCCCCCCC(=O)N[C@@H](CCN)C(=O)N[C@H](C(=O)N[C@@H](CCN)C(=O)N[C@H]1CCNC(=O)[C@H]([C@@H](C)O)NC(=O)[C@H](CCN)NC(=O)[C@H](CCN)NC(=O)[C@H](CCCCCC)NC(=O)[C@@H](Cc2ccccc2)NC(=O)[C@H](CCN)NC1=O)[C@@H](C)O` as the compound, how does the hemolysis at 1 h, 400 ug/ml [5] read?
**A.** < 10%

**Q.** With `CCCCCCCC[C@@H]1NC(=O)[C@@H](Cc2ccccc2)NC(=O)[C@H](CCN)NC(=O)[C@@H](NC(=O)[C@H](CCN)NC(=O)[C@@H](NC(=O)[C@H](CCN)NC(=O)CCCCCCC)[C@@H](C)O)CCNC(=O)[C@H]([C@@H](C)O)NC(=O)[C@H](CCN)NC(=O)[C@H](CCN)NC1=O` (Octanoyl-[Dab]T[Dab][Dab][Dab][dF][Gly(octyl)][Dab][Dab]T; lactam 4-C) as the compound, how does the hemolysis at 1 h, 400 ug/ml [5] read?
**A.** < 10%

**Q.** For `CCCCCCCC(=O)N[C@@H](CCN)C(=O)N[C@H](C(=O)N[C@@H](CCN)C(=O)N[C@H]1CCNC(=O)[C@H]([C@@H](C)O)NC(=O)[C@H](CCN)NC(=O)[C@H](CCN)NC(=O)[C@H](CC(C)C)NC(=O)[C@@H](CCCc2ccccc2)NC(=O)[C@H](CCN)NC1=O)[C@@H](C)O` (Octanoyl-[Dab]T[Dab][Dab][Dab][d(hhPhe)]L[Dab][Dab]T; lactam 4-C), which hemolysis at 1 h, 400 ug/ml [5] is on record?
**A.** < 10%

**Q.** For `CCCCCCCC(=O)N[C@@H](CCN)C(=O)N[C@H](C(=O)N[C@@H](CCN)C(=O)N[C@H]1CCNC(=O)[C@H]([C@@H](C)O)NC(=O)[C@H](CCN)NC(=O)[C@H](CCN)NC(=O)[C@H](Cc2ccc(Cl)cc2)NC(=O)[C@@H](CC(C)C)NC(=O)[C@H](CCN)NC1=O)[C@@H](C)O` (Octanoyl-[Dab]T[Dab][Dab][Dab][dL][Phe(4-Cl)][Dab][Dab]T; lactam 4-C) [listing 2 of 2 here], which hemolysis at 1 h, 400 ug/ml [5] is on record?
**A.** < 10%

**Q.** With `CCCCCCCC(=O)N[C@@H](CCN)C(=O)N[C@H](C(=O)N[C@@H](CCN)C(=O)N[C@H]1CCNC(=O)[C@H]([C@@H](C)O)NC(=O)[C@H](CCN)NC(=O)[C@H](CCN)NC(=O)[C@H](Cc2ccc(Br)cc2)NC(=O)[C@@H](CC(C)C)NC(=O)[C@H](CCN)NC1=O)[C@@H](C)O` (Octanoyl-[Dab]T[Dab][Dab][Dab][dL][Phe(4-Br)][Dab][Dab]T; lactam 4-C) [listing 2 of 2 here] as the compound, how does the hemolysis at 1 h, 400 ug/ml [5] read?
**A.** < 10%

**Q.** For `CC(=O)N[C@H](Cc1ccccc1F)C(=O)N[C@@H](CCN)C(=O)N[C@H](C(=O)N[C@@H](CCN)C(=O)N[C@H]1CCNC(=O)[C@H]([C@@H](C)O)NC(=O)[C@H](CCN)NC(=O)[C@H](CCN)NC(=O)[C@H](CC(C)C)NC(=O)[C@@H](Cc2ccccc2)NC(=O)[C@@H](CCN)NC1=O)[C@H](C)O`, which hemolysis at 1 h, 400 ug/ml [5] is on record?
**A.** < 10%

**Q.** For `CCCCCCCC(=O)N[C@@H](CCN)C(=O)N[C@H](C(=O)N[C@@H](CCN)C(=O)N[C@H]1CCNC(=O)[C@H]([C@@H](C)O)NC(=O)[C@H](CCN)NC(=O)[C@H](CCN)NC(=O)[C@H](CCc2ccccc2)NC(=O)[C@@H](CC(C)C)NC(=O)[C@H](CCN)NC1=O)[C@@H](C)O` (Octanoyl-[Dab]T[Dab][Dab][Dab][dL][hPhe][Dab][Dab]T; lactam 4-C), which hemolysis at 1 h, 400 ug/ml [5] is on record?
**A.** < 10%

**Q.** For `CCCCCCCC(=O)N[C@@H](CCN)C(=O)N[C@H](C(=O)N[C@@H](CCN)C(=O)N[C@H]1CCNC(=O)[C@H]([C@@H](C)O)NC(=O)[C@H](CCN)NC(=O)[C@H](CCN)NC(=O)[C@H](CC(C)C)NC(=O)[C@@H](Cc2ccc(Cl)cc2)NC(=O)[C@H](CCN)NC1=O)[C@@H](C)O` (Octanoyl-[Dab]T[Dab][Dab][Dab][dPhe(4-Cl)]L[Dab][Dab]T; lactam 4-C), which hemolysis at 1 h, 400 ug/ml [5] is on record?
**A.** < 10%
